Measured values published in PubChem BioAssay AID330 (DTP/NCI, 2004).
Values joined by “and” are separate entries in the source; they are usually repeats but may differ in a detail not shown here. Equal values may be shown once. Inconclusive results and toxic doses are left out.

Test system: P388 leukemia ip, CD2F1 mice, survival T/C
Assay: NCI In Vivo Anticancer Drug Screen. Data for tumor model P388 Leukemia (intraperitoneal) in CD2F1 (CDF1) mice
Details: endpoint: median survival time, higher = longer survival
Method in brief: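 Mice carrying the transplanted tumor received test compound or vehicle. Survival was recorded in each group, and the value is the treated-group measurement divided by that of the vehicle-treated control group.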

[1] = dose: 60.0 mg/kg/injection, schedule: Q01DX005 (ip), vehicle: saline
[2] = dose: 100.0 mg/kg/injection, schedule: Q01DX009 (ip), vehicle: saline with Tween-80
[3] = dose: 200.0 mg/kg/injection, schedule: Q01DX009 (ip), vehicle: saline with Tween-80
[4] = dose: 50.0 mg/kg/injection, schedule: Q01DX009 (ip), vehicle: Klucel (hydroxypropylcellulose) (HPC)
[5] = dose: 100.0 mg/kg/injection, schedule: Q01DX009 (ip), vehicle: Klucel (hydroxypropylcellulose) (HPC)
[6] = dose: 60.0 mg/kg/injection, schedule: Q01DX005 (ip), vehicle: Klucel (hydroxypropylcellulose) (HPC)
[7] = dose: 120.0 mg/kg/injection, schedule: Q01DX005 (ip), vehicle: Klucel (hydroxypropylcellulose) (HPC)
[8] = dose: 240.0 mg/kg/injection, schedule: Q01DX005 (ip), vehicle: Klucel (hydroxypropylcellulose) (HPC)
[9] = dose: 100.0 mg/kg/injection, schedule: Q04DX003 (ip), vehicle: saline with Tween-80
[10] = dose: 200.0 mg/kg/injection, schedule: Q04DX003 (ip), vehicle: saline with Tween-80

O=C(c1ccccc1)C1C(=O)c2ccccc2C1=O
T/C [1]: 95 % of control | T/C (dose: 120.0 mg/kg/injection, schedule: Q01DX005 (ip), vehicle: saline): 99 % of control | T/C (dose: 240.0 mg/kg/injection, schedule: Q01DX005 (ip), vehicle: saline): 95 % of control

ClCC1(CCl)COC(c2ccccc2)OC1
T/C [2]: 100 % of control | T/C [3]: 100 % of control | T/C (dose: 400.0 mg/kg/injection, schedule: Q01DX009 (ip), vehicle: saline with Tween-80): 95 % of control

NC(CCC(=O)O)(C(=O)O)c1ccccc1 (stereo not drawn)
T/C (dose: 0.19 mg/kg/injection, schedule: Q01DX009 (ip), vehicle: saline): 101 % of control | T/C (dose: 0.38 mg/kg/injection, schedule: Q01DX009 (ip), vehicle: saline): 104 % of control | T/C (dose: 0.75 mg/kg/injection, schedule: Q01DX009 (ip), vehicle: saline): 100 % of control | T/C (dose: 1.5 mg/kg/injection, schedule: Q01DX009 (ip), vehicle: saline with Tween-80): 98 % of control | T/C (dose: 1.5 mg/kg/injection, schedule: Q01DX009 (ip), vehicle: saline): 109 % of control | T/C (dose: 3.0 mg/kg/injection, schedule: Q01DX009 (ip), vehicle: saline with Tween-80): 98 % of control | T/C [2]: 92 % of control | T/C [3]: 93 % of control

CCCCn1c(C)nc2c(N)cc(C(F)(F)F)cc21
T/C (dose: 3.12 mg/kg/injection, schedule: Q01DX009 (ip), vehicle: Klucel (hydroxypropylcellulose) (HPC)): 100 % of control and 92 % of control | T/C (dose: 6.25 mg/kg/injection, schedule: Q01DX009 (ip), vehicle: Klucel (hydroxypropylcellulose) (HPC)): 105 % of control and 87 % of control | T/C (dose: 12.5 mg/kg/injection, schedule: Q01DX009 (ip), vehicle: Klucel (hydroxypropylcellulose) (HPC)): 121 % of control and 97 % of control | T/C (dose: 25.0 mg/kg/injection, schedule: Q01DX001 (ip), vehicle: Klucel (hydroxypropylcellulose) (HPC)): 111 % of control | T/C (dose: 25.0 mg/kg/injection, schedule: Q01DX009 (ip), vehicle: Klucel (hydroxypropylcellulose) (HPC)): 107 % of control and 89 % of control and 93 % of control | T/C (dose: 50.0 mg/kg/injection, schedule: Q01DX001 (ip), vehicle: Klucel (hydroxypropylcellulose) (HPC)): 115 % of control | T/C [4]: 101 % of control | T/C (dose: 100.0 mg/kg/injection, schedule: Q01DX001 (ip), vehicle: Klucel (hydroxypropylcellulose) (HPC)): 115 % of control | T/C [5]: 105 % of control | T/C (dose: 200.0 mg/kg/injection, schedule: Q01DX001 (ip), vehicle: Klucel (hydroxypropylcellulose) (HPC)): 114 % of control | T/C (dose: 400.0 mg/kg/injection, schedule: Q01DX001 (ip), vehicle: Klucel (hydroxypropylcellulose) (HPC)): 118 % of control

CCOC(=O)c1sc(N)nc1C
T/C (dose: 9.0 mg/kg/injection, schedule: Q01DX009 (ip), vehicle: saline with Tween-80): 111 % of control | T/C (dose: 18.0 mg/kg/injection, schedule: Q01DX009 (ip), vehicle: saline with Tween-80): 90 % of control | T/C (dose: 25.0 mg/kg/injection, schedule: Q01DX009 (ip), vehicle: saline with Tween-80): 105 % of control | T/C (dose: 36.0 mg/kg/injection, schedule: Q01DX009 (ip), vehicle: saline with Tween-80): 99 % of control | T/C (dose: 50.0 mg/kg/injection, schedule: Q01DX009 (ip), vehicle: saline with Tween-80): 106 % of control and 112 % of control and 113 % of control | T/C [2]: 108 % of control and 115 % of control and 97 % of control | T/C [3]: 102 % of control and 112 % of control

CC1=CC(=O)C2C(CC1)C2(C)C (stereo not drawn)
T/C (dose: 100.0 mg/kg/injection, schedule: Q04DX003 (ip), vehicle: saline + Tween-80 + alcohol): 102 % of control | T/C (dose: 200.0 mg/kg/injection, schedule: Q04DX003 (ip), vehicle: saline + Tween-80 + alcohol): 95 % of control | T/C (dose: 400.0 mg/kg/injection, schedule: Q04DX003 (ip), vehicle: saline + Tween-80 + alcohol): 91 % of control

O=S(=O)(F)c1ccc(O)cc1
T/C (dose: 15.0 mg/kg/injection, schedule: Q01DX005 (ip), vehicle: saline): 96 % of control | T/C (dose: 30.0 mg/kg/injection, schedule: Q01DX005 (ip), vehicle: saline): 99 % of control | T/C [1]: 99 % of control and 97 % of control

C[N+]1(C)[B]C[N+](C)(C)[B-]1
T/C [4]: 92 % of control | T/C [5]: 105 % of control | T/C (dose: 200.0 mg/kg/injection, schedule: Q01DX009 (ip), vehicle: Klucel (hydroxypropylcellulose) (HPC)): 103 % of control

CC(C)C1=C2C3CC(O)C(C=O)=CC(=O)C3(C)CCC2(C)CC1 (stereo not drawn)
T/C (dose: 6.25 mg/kg/injection, schedule: Q01DX009 (ip), vehicle: saline + alcohol): 112 % of control | T/C (dose: 12.5 mg/kg/injection, schedule: Q01DX009 (ip), vehicle: saline + alcohol): 110 % of control | T/C (dose: 25.0 mg/kg/injection, schedule: Q01DX009 (ip), vehicle: saline + alcohol): 108 % of control

COC(=O)c1[nH]c(=O)c(C#N)c(C(=O)OC)c1C(=O)c1ccc(Cl)c(Cl)c1
T/C [6]: 100 % of control | T/C [7]: 107 % of control | T/C [8]: 100 % of control

CNC(=O)c1nn(-c2ccccc2)c2oc(=O)cc(C)c12
T/C (dose: 50.0 mg/kg/injection, schedule: Q01DX005 (ip), vehicle: Klucel (hydroxypropylcellulose) (HPC)): 95 % of control | T/C (dose: 100.0 mg/kg/injection, schedule: Q01DX005 (ip), vehicle: Klucel (hydroxypropylcellulose) (HPC)): 87 % of control | T/C (dose: 200.0 mg/kg/injection, schedule: Q01DX005 (ip), vehicle: Klucel (hydroxypropylcellulose) (HPC)): 87 % of control

CCOP(=O)(O)SP(=O)(O)OCC
T/C (dose: 25.0 mg/kg/injection, schedule: Q01DX001 (ip), vehicle: saline): 100 % of control | T/C (dose: 50.0 mg/kg/injection, schedule: Q01DX001 (ip), vehicle: saline): 102 % of control | T/C (dose: 100.0 mg/kg/injection, schedule: Q01DX001 (ip), vehicle: saline): 102 % of control and 100 % of control | T/C (dose: 200.0 mg/kg/injection, schedule: Q01DX001 (ip), vehicle: saline): 101 % of control | T/C (dose: 400.0 mg/kg/injection, schedule: Q01DX001 (ip), vehicle: saline): 101 % of control

CC(=O)Oc1ccc[nH]c1=O
T/C [2]: 104 % of control | T/C [9]: 113 % of control | T/C [3]: 118 % of control | T/C [10]: 104 % of control | T/C (dose: 300.0 mg/kg/injection, schedule: Q01DX009 (ip), vehicle: saline): 155 % of control | T/C (dose: 400.0 mg/kg/injection, schedule: Q01DX009 (ip), vehicle: saline): 158 % of control | T/C (dose: 400.0 mg/kg/injection, schedule: Q04DX003 (ip), vehicle: saline with Tween-80): 109 % of control | T/C (dose: 500.0 mg/kg/injection, schedule: Q01DX009 (ip), vehicle: saline): 87 % of control and 91 % of control | T/C (dose: 600.0 mg/kg/injection, schedule: Q01DX009 (ip), vehicle: saline sonified): 115 % of control | T/C (dose: 600.0 mg/kg/injection, schedule: Q01DX009 (ip), vehicle: saline with Tween-80): 172 % of control | T/C (dose: 600.0 mg/kg/injection, schedule: Q01DX009 (ip), vehicle: saline): 110 % of control

O=C1CSC(c2cccc(Cl)c2)N1N1C(=O)CSC1c1cccc(Cl)c1 (stereo not drawn)
T/C [6]: 102 % of control | T/C [7]: 97 % of control | T/C [8]: 94 % of control

[N-]=[N+]=NC1(c2ccccc2)C(=O)c2ccccc2C1=O
T/C [9]: 94 % of control | T/C [10]: 105 % of control

O=C(O)C(Cc1ccccc1)NC(c1ccc(Cl)cc1)P(=O)(O)O (stereo not drawn)
T/C (dose: 60.0 mg/kg/injection, schedule: Q01DX005 (ip), vehicle: saline with Tween-80): 98 % of control | T/C (dose: 120.0 mg/kg/injection, schedule: Q01DX005 (ip), vehicle: saline with Tween-80): 105 % of control | T/C (dose: 240.0 mg/kg/injection, schedule: Q01DX005 (ip), vehicle: saline with Tween-80): 97 % of control

CSCSCC(CO)NC(=O)/C=C/c1c(C)[nH]c(=O)[nH]c1=O (stereo not drawn)
T/C (dose: 0.08 mg/kg/injection, schedule: Q01DX009 (ip), vehicle: water): 105 % of control | T/C (dose: 0.15 mg/kg/injection, schedule: Q01DX009 (ip), vehicle: water): 107 % of control | T/C (dose: 0.3 mg/kg/injection, schedule: Q01DX009 (ip), vehicle: water): 102 % of control | T/C (dose: 0.6 mg/kg/injection, schedule: Q01DX009 (ip), vehicle: water): 101 % of control | T/C (dose: 1.2 mg/kg/injection, schedule: Q01DX009 (ip), vehicle: water): 109 % of control | T/C (dose: 50.0 mg/kg/injection, schedule: Q01DX009 (ip), vehicle: other): 87 % of control | T/C (dose: 100.0 mg/kg/injection, schedule: Q01DX009 (ip), vehicle: other): 98 % of control | T/C (dose: 200.0 mg/kg/injection, schedule: Q01DX009 (ip), vehicle: other): 89 % of control | T/C (dose: 400.0 mg/kg/injection, schedule: Q01DX009 (ip), vehicle: other): 86 % of control
